Our source for the IC50 values is paper PMC5075052, “Modulation of the Substitution Pattern of 5-Aryl-2-Aminoimidazoles Allows Fine-Tuning of Their Antibiofilm Activity Spectrum and Toxicity” (Antimicrobial Agents and Chemotherapy, 2016).

SMILES strings stand for the structures. Read-outs that look alike come from different tables or passages of the source.

The subject of one test is C. albicans SC5314. Put plainly: Inhibition of C. albicans biofilms, CellTiter-Blue quantification. It is filed as cell-based, Candida albicans. The note with it: Candida albicans; C. albicans SC5314, 37°C, CTB method; read-out: BIC50 (μM) for C. albicans SC5314 (37°C). The procedure: The potential of the compounds to prevent C. albicans SC5314 biofilm formation was assessed using the CellTiter-Blue (CTB) quantification method ([75]). […]. Twofold serial dilutions of the compounds (dissolved in 100% DMSO or ethanol) in 100 μl RPMI 1640 medium per well were prepared in a round-bottom polystyrene 96-well microtiter plate (TPP; Trasadingen, Switzerland) in duplicate or triplicate with a maximum concentration of 1,600 μM and a minimum concentration of 0.8 μM. One hundred microliters of the cell suspension was added to each well of the microtiter plate, resulting in a total volume of 200 μl medium per well (final concentration range of compounds, 800 μM [2% DMSO or ethanol] to 0.4 μM [0.001% DMSO or ethanol]). After 16 h of static incubation at 37°C, the biofilms were washed and quantified by the CTB method as described previously ([73]).
On the technique in general: Resazurin is reduced to fluorescent resorufin, in cell work by metabolically active cells.

In another test the test system is E. coli TG1. As to the kind of experiment: Monospecies bacterial biofilm inhibition, static peg assay. It is filed as cell-based, Escherichia coli. The note with it: Escherichia coli. The procedure:
(§1) A static peg assay, described previously ([27], [74]), was used for bacterial biofilm formation. The Calgary biofilm device consists of a platform carrying 96 polystyrene pegs (Nunc no. 445497) that fits as a microtiter plate lid, with 1 peg hanging into each microtiter plate well (Nunc no. 269789). Twofold serial dilutions of the compounds (dissolved in 100% dimethyl sulfoxide [DMSO] or ethanol) in 100 μl liquid broth (TSB diluted 1/20) per well were prepared in the microtiter plate in duplicate or triplicate with a maximum concentration of 1,600 μM and a minimum concentration of 0.8 μM. Subsequently, an overnight culture of S. Typhimurium ATCC 14028, P. aeruginosa PA14, E. coli TG1, S. epidermidis, S. aureus SH1000, or S. aureus ATCC 6538 (all grown in LB) was diluted 1:100 into TSB diluted 1/20 (or TSB for S. epidermidis, S. aureus SH1000, and S. aureus ATCC 6538), whereas overnight cultures of S. liquefaciens MG44 and B. cepacia LMG1222T were diluted 1:50 into TSB diluted 1/20. P. gingivalis ATCC 33277 cultures were diluted in TSB diluted 1/20 to have a final concentration of 1 × 10^8 cells/ml. Next, 100 μl was added to each well of the microtiter plate, resulting in a total volume of 200 μl medium per well (final concentration range of compounds, 800 μM [2% DMSO or ethanol] to 0.4 μM [0.001% DMSO or ethanol]). In the next step, the pegged lid was placed on the microtiter plate and the plate was incubated for 24 h or 48 h at 25°C or 37°C without shaking. At 37°C, the plates were placed in a sealed container with wet towels on the bottom to prevent evaporation of the growth medium. Biofilms of P. gingivalis ATCC 33277 were grown anaerobically at 37°C for 72 h. During this incubation period, biofilms were formed on the surface of the pegs. After incubation, the optical density at 600 nm (OD600) for the planktonic cells in the microtiter plate was measured using a Synergy MX multimode reader (BioTek, Winooski, VT). This gives a first indication of the effect of the compounds on planktonic growth. For quantification of biofilm formation, the pegs were washed once in 200 μl PBS. The remaining attached bacteria were stained for 30 min with 200 μl 0.1% (wt/vol) crystal violet in an isopropanol-methanol-PBS solution (1:1:18, vol/vol). Excess stain was rinsed off by placing the pegs in a 96-well plate filled with 200 μl distilled water per well. After air drying of the pegs (30 min), the dye bound to the adherent biofilm was extracted with 30% glacial acetic acid (200 μl per well of a 96-well plate). The optical density at 570 nm (OD570) of each well was measured using a Synergy MX multimode reader (BioTek, Winooski, VT). The concentration of each compound needed to inhibit biofilm formation by 50% (BIC50) and the concentration of each compound needed to inhibit planktonic growth by 50% (IC50) were determined from the concentration gradient by using nonlinear curve fitting (GraphPad Prism software, version 5; GraphPad Software, Inc., La Jolla, CA). In the same assay, the effect on planktonic growth was evaluated. The activity was considered biofilm specific if the BIC50 was at least two times lower than the IC50. Data represent the means from at least 3 technical repeats with the corresponding 95% confidence intervals (provided in the supplemental material).

The test system of another test is P. aeruginosa PA14. Described as above. The class given is cell-based, Pseudomonas aeruginosa. The note with it: Pseudomonas aeruginosa. The procedure:
as §1

Test [1] relates to E. coli TG1 + P. aeruginosa PA14. As to the kind of experiment: Mixed-species E. coli-P. aeruginosa biofilm assay (peg, crystal violet). It is filed as cell-based, Escherichia coli + Pseudomonas aeruginosa. The procedure:
Overnight cultures of E. coli TG1 and P. aeruginosa PA14 were diluted 1/100 in the same vial of TSB diluted 1/20 to form a mixed-culture suspension. Next, 2-fold serial dilutions of the compounds (dissolved in 100% DMSO or ethanol) in 100 μl liquid broth (TSB diluted 1/20) per well were prepared in the microtiter plate of the Calgary biofilm device (Nunc no. 269789) in duplicate or triplicate with a maximum concentration of 1,600 μM and a minimum concentration of 0.8 μM. One hundred microliters of the mixed-culture suspension was added to each well of the microtiter plate, resulting in a total volume of 200 μl medium per well (final concentration range of compounds, 800 μM [2% DMSO or ethanol] to 0.4 μM [0.001% DMSO or ethanol]). The pegged lid was placed on the microtiter plate, and the plate was incubated for 72 h at 37°C, which allowed biofilm formation on the pegs (Nunc no. 269789) of the Calgary biofilm device. After 72 h, the biofilm was colored with crystal violet as described above ([74]). The OD570 (biofilm cells) and OD600 (planktonic cells) were measured, and the BIC50 and the IC50, respectively, were calculated.

The subject of the next test is S. aureus ATCC 6538. As to the kind of experiment: Monospecies bacterial biofilm inhibition, static peg assay (Calgary device, crystal violet; planktonic OD600). The note with it: Staphylococcus aureus, ATCC6538, S. aureus ATCC 6538, 37°C. It is filed as cell-based, Staphylococcus aureus. The procedure:
as §1

Where [2] appears, read: TG1, E. coli TG1, 25°C, read-out: BIC50.
[3] abbreviates: TG1, E. coli TG1, 25°C, read-out: IC50 (planktonic growth).
[4] abbreviates: TG1, E. coli TG1, 37°C, read-out: BIC50.
Setting [5] is: TG1, E. coli TG1, 37°C, read-out: IC50 (planktonic growth).
The mark [6] stands for this setting: PA14, P. aeruginosa PA14, 25°C, read-out: BIC50.
Where [7] appears, read: PA14, P. aeruginosa PA14, 25°C, read-out: IC50 (planktonic growth).
The mark [8] stands for this setting: PA14, P. aeruginosa PA14, 37°C, read-out: BIC50.
The mark [9] stands for this setting: PA14, P. aeruginosa PA14, 37°C, read-out: IC50 (planktonic growth).
Setting [10] is: mixed E. coli TG1 + P. aeruginosa PA14, 37°C, read-out: IC50 (planktonic growth).
Where [11] appears, read: mixed E. coli TG1 + P. aeruginosa PA14 biofilm, 37°C, read-out: BIC50.
Setting [12] is: planktonic OD600, read-out: IC50 (concentration needed to inhibit planktonic growth by 50%).
Where [13] appears, read: read-out: BIC50 (concentration needed to inhibit biofilm formation by 50%).

`CCCCCCCCn1c(-c2ccc(Cl)c(Cl)c2)cnc1NCC(C)C` [Compound 8d]: the IC50 in the test with C. albicans SC5314 is greater than 100 µM; with E. coli TG1 (setting [2]) it was greater than 400 µM; with E. coli TG1 (setting [3]), 255 µM; in the test on E. coli TG1 (setting [4]), greater than 400 µM; with E. coli TG1 (setting [5]), 46.3 µM; in the test with P. aeruginosa PA14 (setting [6]), greater than 400 µM. The IC50 (in the test on P. aeruginosa PA14 (setting [7]); in the test on P. aeruginosa PA14 (setting [8]); in the test on P. aeruginosa PA14 (setting [9]); in test [1] (setting [10]); in test [1] (setting [11]); in the test on S. aureus ATCC 6538 (setting [12])) was greater than 400 µM in each case. Besides, the IC50 with S. aureus ATCC 6538 (setting [13]) worked out at 116 µM.
`CCCCCCCCn1c(-c2ccccc2)cnc1NC1CCCC1` [Compound 8e]: the IC50 was roughly 11.9 µM with C. albicans SC5314; roughly 26.7 µM in the test with E. coli TG1 (setting [2]); 189 µM in the test with E. coli TG1 (setting [3]); roughly 27.6 µM with E. coli TG1 (setting [4]); 10.5 µM in the test on E. coli TG1 (setting [5]); greater than 400 µM in the test on P. aeruginosa PA14 (setting [6]). The IC50 with P. aeruginosa PA14 (setting [7]) is 62.9 µM; in the test with P. aeruginosa PA14 (setting [8]), greater than 400 µM; in the test with P. aeruginosa PA14 (setting [9]), 167 µM; in test [1] (setting [10]) it was greater than 400 µM; in test [1] (setting [11]) it was 101 µM; in the test with S. aureus ATCC 6538 (setting [12]), 46.5 µM. The IC50 in the test with S. aureus ATCC 6538 (setting [13]) was determined as 1 µM.
For `CCCCCCCCn1c(-c2ccc(Cl)cc2)cnc1NC1CCCC1` [Compound 8f], the IC50 in the test with C. albicans SC5314 was 8.9 µM; in the test on E. coli TG1 (setting [2]), 29.1 µM; with E. coli TG1 (setting [3]), greater than 400 µM; in the test on E. coli TG1 (setting [4]) it was 306 µM; in the test with E. coli TG1 (setting [5]) it was 370 µM; with P. aeruginosa PA14 (setting [6]), greater than 400 µM. Further, the IC50 with P. aeruginosa PA14 (setting [7]) is greater than 400 µM; in the test with P. aeruginosa PA14 (setting [8]), greater than 400 µM; in the test on P. aeruginosa PA14 (setting [9]), greater than 400 µM; in test [1] (setting [10]), greater than 400 µM; in test [1] (setting [11]), 400 µM; in the test with S. aureus ATCC 6538 (setting [12]), roughly 24.1 µM. Further, the IC50 in the test on S. aureus ATCC 6538 (setting [13]) came to 6.7 µM.
For the compound `CCCCCCCCn1c(-c2ccc(Br)cc2)cnc1NC1CCCC1` [Compound 8g], the IC50 in the test on C. albicans SC5314 is 21.1 µM; in the test on E. coli TG1 (setting [2]) it was 43 µM; in the test on E. coli TG1 (setting [3]), greater than 400 µM; in the test with E. coli TG1 (setting [4]), greater than 400 µM; in the test with E. coli TG1 (setting [5]) it was 237 µM; in the test on P. aeruginosa PA14 (setting [6]) it was greater than 400 µM. Besides, the IC50 is greater than 400 µM in the test with P. aeruginosa PA14 (setting [7]); greater than 400 µM in the test on P. aeruginosa PA14 (setting [8]); greater than 400 µM in the test on P. aeruginosa PA14 (setting [9]); greater than 400 µM in test [1] (setting [10]); greater than 400 µM in test [1] (setting [11]); 19.1 µM with S. aureus ATCC 6538 (setting [12]). In the test on S. aureus ATCC 6538 (setting [13]), the IC50 was 8.5 µM.
For the compound `CCCCCCCCn1c(-c2ccc(Cl)c(Cl)c2)cnc1NC1CCCC1` [Compound 8h], the IC50 in the test with C. albicans SC5314 is greater than 100 µM; in the test with E. coli TG1 (setting [2]), greater than 400 µM; in the test on E. coli TG1 (setting [3]), greater than 400 µM; in the test on E. coli TG1 (setting [4]), greater than 400 µM; in the test with E. coli TG1 (setting [5]), greater than 400 µM; with P. aeruginosa PA14 (setting [6]), greater than 400 µM. Also, the IC50 was greater than 400 µM in the test on P. aeruginosa PA14 (setting [7]); greater than 400 µM with P. aeruginosa PA14 (setting [8]); greater than 400 µM with P. aeruginosa PA14 (setting [9]); greater than 400 µM in test [1] (setting [10]); greater than 400 µM in test [1] (setting [11]); 19.5 µM with S. aureus ATCC 6538 (setting [12]). Also, in the test with S. aureus ATCC 6538 (setting [13]), the IC50 is 3.8 µM.
